Measured values published in publication PMC6884575, “Suppression of FOXM1 activities and breast cancer growth in vitro and in vivo by a new class of compounds” (NPJ Breast Cancer, 2019).

Experiments:
[1] = target: T1, FOXM1 (Homo sapiens, UniProt Q08050); test: Cellular FOXM1 protein level by Western blot; format: cell-based; parameters: endogenous in cells; host or cells: MDA-MB-231, MCF7; details: MDA-MB-231 or MCF7 cells over time; NB-55 5/8 µM, NB-73 1.5/4 µM, NB-115 4 µM, FDI-6 8 µM
T1 sequence (Q08050 1-763): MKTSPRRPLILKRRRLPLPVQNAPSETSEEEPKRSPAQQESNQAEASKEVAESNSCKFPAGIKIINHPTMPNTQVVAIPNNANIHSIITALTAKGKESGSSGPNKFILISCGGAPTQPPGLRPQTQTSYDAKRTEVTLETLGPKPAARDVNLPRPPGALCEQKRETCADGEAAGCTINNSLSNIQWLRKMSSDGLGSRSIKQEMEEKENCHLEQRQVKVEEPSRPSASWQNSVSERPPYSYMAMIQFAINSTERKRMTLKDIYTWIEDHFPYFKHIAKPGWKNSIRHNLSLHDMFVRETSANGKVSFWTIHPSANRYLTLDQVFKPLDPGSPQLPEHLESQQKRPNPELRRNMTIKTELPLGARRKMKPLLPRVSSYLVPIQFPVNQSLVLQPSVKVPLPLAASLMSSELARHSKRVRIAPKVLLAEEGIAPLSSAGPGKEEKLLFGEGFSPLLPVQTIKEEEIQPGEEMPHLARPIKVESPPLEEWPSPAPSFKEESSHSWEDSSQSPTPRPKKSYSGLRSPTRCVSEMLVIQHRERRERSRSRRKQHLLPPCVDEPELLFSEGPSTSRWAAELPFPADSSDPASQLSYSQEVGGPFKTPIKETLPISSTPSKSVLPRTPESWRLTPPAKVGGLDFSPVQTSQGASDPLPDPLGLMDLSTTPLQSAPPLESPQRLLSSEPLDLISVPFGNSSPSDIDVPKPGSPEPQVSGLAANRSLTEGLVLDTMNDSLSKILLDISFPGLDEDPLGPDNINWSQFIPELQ
Procedure: For Western blot analysis, whole-cell extracts were prepared using 1X RIPA lysis buffer (Thermo Fisher) supplemented with 1X protease inhibitor cocktail (Millipore Sigma). […] In some cases, treatments with compound were done in the presence of the proteasome inhibitor MG132 (Calbiochem) as described in the figure legend. […] Band intensities were analyzed with Licor Odyssey 2.1 software. All blots shown together derive from the same experiment and were processed in parallel. Full uncropped images of blots are shown as supplementary figures in the Supplementary Information file. Molecular weight markers were Rainbow markers from GE Healthcare (38–225 kDa) or Precision Plus Dual Color Markers from Biorad (37–250 kDa).

[2] = system: MCF7 cells; test: RNA-Seq gene regulation in MCF7 cells; format: cell-based, human
Procedure: For gene expression analysis, total RNA was extracted from cells using Trizol reagent and further cleaned using the Turbo DNase and RNAqueous kits (ThermoFisher). Cells were treated with Veh (0.1% EtOH), or with the compounds indicated for 9 h or 24 h. Once the sample quality and replicate reproducibility were verified, samples from each group were subjected to sequencing. RNA at a concentration of 100 ng/µl in nuclease-free water was used for library construction. cDNA libraries were prepared with the mRNA-TruSeq Kit (Illumina, Inc.). In brief, the poly-A containing mRNA was purified from total RNA, the RNA was fragmented, double-stranded cDNA was generated from fragmented RNA, and adapters were ligated to the ends.
The paired-end read data from the HiSeq 4000 were processed and analyzed through a series of steps. Base calling and de-multiplexing of samples within each lane were done with Casava 1.8.2. The RNA sequences were prepared with Illumina’s TruSeq Stranded mRNAseq Sample Prep kit. Reads were trimmed of adapters and low expression data using Trimmomatic version 0.38.[42] The STAR alignment tool version 2.5.3a was used to align the sequenced reads to the GRCh37 human genome from Ensembl.[43] Gene counts were calculated using subread version 1.5.2.[44],[45] The edgeR Bioconductor package in R was used for normalization and differential expression analysis. Default normalization methods were used, specifically trimmed mean of M values or TMM was used to calculate the normalized expression values. This method calculates the weighted trimmed mean of the log expression ratios in a gene-wise fashion.[46],[47] We considered genes with fold-change > 2 and p-value < 0.05 as statistically significant, differentially expressed.

Clc1ccc(C(=C2C3CC4CC(C3)CC2C4)c2ccc(OCCCCCCN3CCCC3)cc2)cc1 [NB-55]
intracellular level of FOXM1 [1]: reduced the intracellular level of FOXM1
genes regulated that overlapped with NB-73 regulated genes ([2]; MCF7, 9 h, more than 2-fold, FDR < 0.05): 72%
genes regulated more than 2-fold (Venn diagram) ([2]; MCF7, 9 h treatment, p < 0.05, FDI-6 20 µM): 567 genes
